Eight molecules from PubChem BioAssay (NCI) can be followed below.

Holding throughout (experiment): NCI anticancer screen, dose series, 48 h
Test [1] relates to A549 NSCLC.
Test [2] deals with HOP-62 NSCLC.
In test [3] the test system is HT29 colon.
For test [4], the system named is IGROV1 ovarian.
For test [5], the system named is MOLT-4 leukemia.
The subject of test [6] is NCI-H23 lung.
Test [7] concerns SK-OV-3 ovarian.
Test [8] concerns SNB-19 CNS.
Test [9] deals with SR leukemia.
Test [10] relates to UACC-257 melanoma.

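Cultured in 96-well plates, cells were exposed to test compound for 48 hours across five concentrations. GI50: concentration for 50% inhibition of growth. TGI: concentration producing complete growth inhibition.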

With `O=C(Cc1ccc(F)c(Cl)c1)Nc1cc(C2(C(F)(F)F)CC2)nn1CC1CCCCC1`, the GI50 is 4.6 µM in [1]; 3.96 µM in test [2]; 3.96 µM in [3]; 4.64 µM in [4]; 3.37 µM in test [5]; 3.52 µM in test [6]. Further, the GI50 in test [7] is 3.24 µM; in [8], 4.78 µM; in test [9], 3.73 µM; in test [10] it was 3.38 µM. Besides, the TGI is above 15 µM in test [1]; above 15 µM in test [2]; above 15 µM in [3]; above 15 µM in test [4]; 9.57 µM in test [5]; 12 µM in [6]. The TGI is 11 µM in test [7], above 15 µM in test [8], 11.4 µM in [9] and 11.2 µM in test [10].

Take `N=c1c2c(-c3ccccc3)c(-c3ccccc3)n(Cc3ccccc3)c2ncn1C1CCC(O)CC1` (centres undefined): the GI50 in test [1] was 0.103 µM; in test [2] it was 0.261 µM; in test [3], 0.0772 µM; in [4] it was 0.0902 µM; in test [5] it was 0.075 µM; in test [6] it was 0.836 µM. Moreover, the GI50 in [7] was 2.32 µM; in [8], 1.21 µM; in test [9], 0.034 µM; in test [10], 0.469 µM. Besides, the TGI was 12.9 µM in test [1]; 14.8 µM in test [2]; 2.49 µM in test [3]; 4.49 µM in test [4]; 4.83 µM in test [5]; 22 µM in [6]. Besides, the TGI in test [7] was 15.7 µM; in test [8] it was 17.9 µM; in test [9] it was 2.2 µM; in [10], 1.91 µM.

On to `O=c1oc2ccc(-c3ccc(F)cc3F)cc2c(=O)n1-c1cccc(C(F)(F)F)c1`, for which the GI50 in [1] is 1.75 µM; in test [2], 1.73 µM; in test [3], 3.24 µM; in test [4], 1.66 µM; in test [5] it was 2.15 µM; in test [6] it was 0.687 µM. Also, the GI50 in test [7] is 1.02 µM; in test [8], 1.83 µM; in test [9] it was 1.31 µM; in [10] it was 0.274 µM. Further, the TGI in [1] turned out to be 34.8 µM; in test [2] it was 4.57 µM; in test [3] it was 11.7 µM; in test [4], 22.2 µM; in test [5], 4.97 µM; in test [6], 3.59 µM. The TGI in test [7] is 4.54 µM; in test [8], above 100 µM; in test [9] it was 6.25 µM; in test [10], 3.31 µM.

Regarding `CC(=O)Nc1ccc(-c2csc(Nc3cccc(-c4csc(C)n4)c3)n2)cc1`, the GI50 in test [1] is 1.21 µM; in [2], 3.02 µM; in [3], 2.38 µM; in test [4], 3.79 µM; in [6], 3.31 µM; in test [7], 2.38 µM. In addition, the GI50 in test [8] is 1.6 µM; in test [9] it was 0.787 µM; in test [10] it was 4.63 µM. Moreover, the TGI is 18.9 µM in test [1]; 15 µM in test [2]; above 50 µM in test [3]; above 30.9 µM in test [4]; above 50 µM in test [5]; above 27.7 µM in test [6]. In addition, the TGI in test [7] is 19.1 µM; in test [8] it was above 50 µM; in test [9], above 50 µM; in [10] it was 21.5 µM.

For the molecule `O=C(c1ccco1)c1c(C(F)(F)F)nc2ccc(Cl)cc2[n+]1[O-]`, the GI50 was above 100 µM in [1]; above 100 µM in [2]; above 100 µM in test [3]; above 100 µM in test [4]; above 100 µM in [5]; 69.5 µM in [6]. In addition, the GI50 in [7] is above 100 µM; in [8], above 100 µM; in test [9] it was 86.6 µM; in [10], above 100 µM. Moreover, the TGI in test [1], in [2], in test [3], in test [4], in test [5] and in [6] was above 100 µM in each case. Moreover, the TGI in [7], in [8], in [9] and in test [10] was above 100 µM throughout.

Consider `CN(C)CC[C@H](CSc1ccccc1)Nc1ccc(S(=O)(=O)NC(=O)c2ccc(N3CCN(Cc4ccccc4-c4ccc(Cl)cc4)CC3)cc2)cc1[N+](=O)[O-]`, for which the GI50 in test [1] is 3.73 µM; in [2], 9.66 µM; in [3], 2.17 µM; in test [4] it was 3.05 µM; in test [5] it was 0.392 µM; in [6] it was 9.07 µM. Also, the GI50 in test [7] was 4.58 µM; in [8] it was 4.68 µM; in test [9], 3.85 µM; in [10], 1.79 µM. The TGI was above 100 µM in [1]; above 60.2 µM in test [2]; 5.02 µM in [3]; above 51.6 µM in [4]; 2.64 µM in [5]; above 100 µM in [6]. Moreover, the TGI in test [7] was 16.9 µM; in [8], above 100 µM; in [9], 40.2 µM; in test [10] it was 6.16 µM.

On to `COc1ccc(OCC(=O)O)c2c1CCCC2=O`, for which the TGI in test [1], in [2], in [3], in test [4], in test [5] and in test [6] was above 100 µM in each case. The TGI in test [7], in [8], in test [9] and in test [10] was above 100 µM each time.

For the molecule `CN1CCN(c2ccc(Nc3cc(-c4cccc(-n5ccc6cc(C7CC7)cc(F)c6c5=O)c4CO)cn(C)c3=O)nc2)CC1`, the GI50 is 5.27 µM in [1]; 3.97 µM in [2]; 3 µM in test [3]; 8.65 µM in [4]; 3.73 µM in test [5]; 13.6 µM in [6]. For the same molecule, the GI50 is 14.6 µM in test [7], 3.15 µM in [8], 1.79 µM in test [9] and 2.28 µM in [10]. Besides, the TGI is 19.2 µM in test [1]; 20.7 µM in test [2]; 13.9 µM in test [3]; 25.7 µM in [4]; 19.1 µM in test [5]; 37.3 µM in test [6]. Moreover, the TGI in test [7] stood at 29.5 µM; in test [8] it was 15.4 µM; in [9], 5.27 µM; in [10], 5.03 µM.
